Experimental data: PubChem BioAssay AID180 (DTP/NCI, 2004)

Tested on: BDF1 mice, Adenocarcinoma 755 s.c., tumor weight T/C
Assay: NCI In Vivo Anticancer Drug Screen. Data for tumor model Adenocarcinoma 755 (subcutaneous) in B6D2F1 (BDF1) mice
Settings: endpoint: mean tumor weight, higher = larger tumour
Method in brief: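 Readout: T/C, i.e. treated-group measurement over vehicle-control measurement. Endpoint is survival or tumor size in tumor-bearing mice given compound.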

CC(=O)O[C@]1(C(C)=O)CC[C@H]2[C@@H]3C[C@H](C)C4=CC(=O)C=C[C@]4(C)[C@@]3(F)[C@@H](O)C[C@@]21C
T/C (dose: 4.5 mg/kg/injection, schedule: Q01DX011 (sc), vehicle: steriod suspending solution): 95 % of control | T/C (dose: 9.0 mg/kg/injection, schedule: Q01DX011 (sc), vehicle: steriod suspending solution): 60 % of control | T/C (dose: 15.0 mg/kg/injection, schedule: Q01DX011 (sc), vehicle: steriod suspending solution): 54 % of control | T/C (dose: 18.0 mg/kg/injection, schedule: Q01DX011 (sc), vehicle: steriod suspending solution): 34 % of control | T/C (dose: 30.0 mg/kg/injection, schedule: Q01DX011 (sc), vehicle: steriod suspending solution): 34 % of control | T/C (dose: 60.0 mg/kg/injection, schedule: Q01DX011 (sc), vehicle: steriod suspending solution): 19 % of control | T/C (dose: 120.0 mg/kg/injection, schedule: Q01DX011 (sc), vehicle: steriod suspending solution): 8 % of control | T/C (dose: 136.0 mg/kg/injection, schedule: Q01DX011 (sc), vehicle: steriod suspending solution): 17 % of control

CCCCCCC(=O)NC1=C(N2CC2)C(=O)C(NC(=O)CCCCCC)=C(N2CC2)C1=O
T/C (dose: 11.25 mg/kg/injection, schedule: Q01DX011 (ip), vehicle: carboxymethylcellulose (CMC)): 48 % of control | T/C (dose: 45.0 mg/kg/injection, schedule: Q01DX011 (ip), vehicle: carboxymethylcellulose (CMC)): 4 % of control

C[C@]12CC[C@@H]3c4ccc(OC(=O)c5ccccc5)cc4CC[C@H]3[C@@H]1CC[C@@H]2O
T/C (dose: 77.31 mg/kg/injection, schedule: Q01DX011 (sc), vehicle: steriod suspending solution): 81 % of control | T/C (dose: 125.0 mg/kg/injection, schedule: Q01DX011 (sc), vehicle: steriod suspending solution): 66 % of control | T/C (dose: 154.63 mg/kg/injection, schedule: Q01DX011 (sc), vehicle: steriod suspending solution): 94 % of control | T/C (dose: 250.0 mg/kg/injection, schedule: Q01DX011 (sc), vehicle: steriod suspending solution): 87 % of control | T/C (dose: 309.25 mg/kg/injection, schedule: Q01DX011 (sc), vehicle: steriod suspending solution): 72 % of control | T/C (dose: 500.0 mg/kg/injection, schedule: Q01DX011 (sc), vehicle: steriod suspending solution): 84 % of control | T/C (dose: 618.5 mg/kg/injection, schedule: Q01DX011 (sc), vehicle: steriod suspending solution): 91 % of control | T/C (dose: 1000.0 mg/kg/injection, schedule: Q01DX011 (sc), vehicle: steriod suspending solution): 54 % of control

[OH-].[OH-].[Pd+2].c1ccc(CSc2ncnc3nc[nH]c23)cc1.c1ccc(CSc2ncnc3nc[nH]c23)cc1.c1ccc(CSc2ncnc3nc[nH]c23)cc1.c1ccc(CSc2ncnc3nc[nH]c23)cc1
T/C (dose: 3.0 mg/kg/injection, schedule: Q01DX011 (ip), vehicle: saline): 76 % of control | T/C (dose: 6.0 mg/kg/injection, schedule: Q01DX011 (ip), vehicle: saline): 36 % of control | T/C (dose: 12.0 mg/kg/injection, schedule: Q01DX011 (ip), vehicle: saline): 17 % of control | T/C (dose: 12.5 mg/kg/injection, schedule: Q01DX011 (ip), vehicle: saline): 16 % of control | T/C (dose: 25.0 mg/kg/injection, schedule: Q01DX011 (ip), vehicle: saline): 1 % of control | T/C (dose: 50.0 mg/kg/injection, schedule: Q01DX011 (ip), vehicle: saline): 1 % of control | T/C (dose: 100.0 mg/kg/injection, schedule: Q01DX011 (ip), vehicle: saline): 1 % of control | T/C (dose: 200.0 mg/kg/injection, schedule: Q01DX011 (ip), vehicle: saline): 1 % of control

Ic1ncnc2c1ncn2C1CCCS1 (stereo not drawn)
T/C (dose: 75.0 mg/kg/injection, schedule: Q01DX011 (ip), vehicle: methylcellulose (MC)): 150 % of control | T/C (dose: 225.0 mg/kg/injection, schedule: Q01DX011 (ip), vehicle: methylcellulose (MC)): 95 % of control

Nc1nc(SCc2ccccc2)c2ncn(Cc3ccccc3)c2n1
T/C (dose: 62.5 mg/kg/injection, schedule: Q01DX011 (ip), vehicle: methylcellulose (MC)): 28 % of control | T/C (dose: 125.0 mg/kg/injection, schedule: Q01DX011 (ip), vehicle: methylcellulose (MC)): 14 % of control | T/C (dose: 250.0 mg/kg/injection, schedule: Q01DX011 (ip), vehicle: methylcellulose (MC)): 7 % of control

CCC(c1ccc(O)cc1)C(CC)c1ccc(OC)cc1 (stereo not drawn)
T/C (dose: 5.0 mg/kg/injection, schedule: Q01DX011 (sc), vehicle: steriod suspending solution): 57 % of control | T/C (dose: 10.0 mg/kg/injection, schedule: Q01DX011 (sc), vehicle: steriod suspending solution): 56 % of control | T/C (dose: 20.0 mg/kg/injection, schedule: Q01DX011 (sc), vehicle: steriod suspending solution): 33 % of control | T/C (dose: 31.0 mg/kg/injection, schedule: Q01DX011 (ip), vehicle: olive oil, sesame oil, peanut oil): 33 % of control | T/C (dose: 62.5 mg/kg/injection, schedule: Q01DX011 (ip), vehicle: olive oil, sesame oil, peanut oil): 27 % of control | T/C (dose: 125.0 mg/kg/injection, schedule: Q01DX011 (ip), vehicle: olive oil, sesame oil, peanut oil): 45 % of control | T/C (dose: 250.0 mg/kg/injection, schedule: Q01DX011 (ip), vehicle: olive oil, sesame oil, peanut oil): 33 % of control
